Results taken from publication PMC3006453 (Journal of structural biology, 2010).
Entries after “also recorded” stand apart in the source; their conditions may differ. Like-named read-outs stand apart in the source and are kept apart here.

What was measured:
[1] = target: T1, AtMTAN1 (Arabidopsis thaliana, UniProt Q9T0I8); details: ref Siu et al., 2008a, cited from earlier work; for hydrolysis of substrates with extended 5′-substituents by AtMTAN1: previous kinetics studies
[2] = target: AtMTAN1-Glu202Gln (Arabidopsis thaliana, UniProt Q9T0I8, E202Q); experiment: Isothermal titration calorimetry, ligand binding to AtMTAN1-Glu202Gln mutant
[3] = target: EcMTAN-Glu174Gln (Escherichia coli, UniProt P0AF12, E174Q); experiment: Isothermal titration calorimetry, ligand binding to EcMTAN-Glu174Gln mutant; details: for N: ITC stoichiometry; for ΔH / −TΔS: pH 7.5, 25 °C
[4] = target: T1, AtMTAN1; experiment: Xanthine oxidase-coupled spectrophotometric assay of substrate hydrolysis; format: biochemical
[5] = target: T1, AtMTAN1; experiment: Isothermal titration calorimetry, ligand binding to wild-type AtMTAN1
[6] = system: EcMTAN; details: substrate SAH; no reference and method not given
[7] = system: AtMTAN2; details: ref Siu et al., 2008a; cited from earlier work
[8] = ITC stoichiometry, single-binding site model
[9] = ITC, 50 mM sodium-HEPES pH 7.5, 25 °C, single-binding site model

In the case of 5′-butylthioadenosine, the “hydrolysis of substrates with extended 5′-substituents by AtMTAN1” value [1] is listed as “can hydrolyze”.
In the case of 5′-isobutylthioadenosine, the “hydrolysis of substrates with extended 5′-substituents by AtMTAN1” value [1] is given as “can hydrolyze”.
5′-methylthioadenosine [MTA] gave an N [2, 8] of 0.97 ± 0.04, a Kd [2, 9] of 94.8 ± 4 µM and a ΔH ([2]; ITC, pH 7.5, 25 °C) of 5.6 ± 0.3 kcal/mol. The “−TΔS” value ([2]; ITC, pH 7.5, 25 °C) was -11.1 kcal/mol, the N ([3]; single-binding site model) was 0.94 ± 0.01 and the Kd [3, 9] was 4.8 ± 0.4 µM. For the same compound, the ΔH ([3]; ITC) was -9.6 ± 0.1 kcal/mol, the “−TΔS” value ([3]; ITC) was 2.4 kcal/mol and the Km ([4]; substrate MTA, wild-type AtMTAN1, no reference given) was 1.5 ± 0.2 µM.
With `Nc1ncnc2[nH]cnc12` [ADE, adenine] the Kd [5] was 1.7 ± 0.1 µM, the N [5, 8] was 0.99 ± 0.003 and the ΔH ([5]; ITC, pH 7.5, 25 °C) was -10.3 ± 0.5 kcal/mol. For the same compound, the “−TΔS” value ([5]; ITC, pH 7.5, 25 °C) was 2.4 kcal/mol.
For `Nc1ncnc2c1ncn2[C@@H]1O[C@H](CSCC[C@H](N)C(=O)O)[C@@H](O)[C@H]1O` [SAH, S-adenosylhomocysteine], the Kd [2] was > 600 µM, the Kd [2, 9] was “No interaction is detected; also recorded: Not detected” and the Kd [3] was 9.3 ± 0.4 µM. The N ([3]; single-binding site model) was 0.94 ± 0.01, the ΔH ([3]; ITC) was -7.9 ± 0.1 kcal/mol and the “−TΔS” value ([3]; ITC) was 1.0 kcal/mol. The “catalytic activity (hydrolysis) of AtMTAN1 towards the substrate” value ([4]; kinetics and ITC studies, 10- and 30-min durations) was “does not hydrolyze; also recorded: did not detect catalytic activity”, the Km [6] was 1.3 ± 0.2 µM and the “activity towards the substrate” value [7] was 14%. The “activity of AtMTAN1 towards the substrate” value [1] was “completely inactive”.
